Calls of active or inactive are those of the source. The calls are words filed in the database; no cut-off is given here.
Legend:
[1] = biological target: T1, P2X purinoceptor 7 (Mus musculus) (UniProt Q9Z1M0); test: Antagonist activity at P2X7R in Swiss Webster mouse peritoneal macrophages assessed as inhibition of propidium iodide uptake preincubated for 10 mins propidium iodide addition measured after 5 mins by fluorescence microscopic analysis
T1 sequence (whole entry): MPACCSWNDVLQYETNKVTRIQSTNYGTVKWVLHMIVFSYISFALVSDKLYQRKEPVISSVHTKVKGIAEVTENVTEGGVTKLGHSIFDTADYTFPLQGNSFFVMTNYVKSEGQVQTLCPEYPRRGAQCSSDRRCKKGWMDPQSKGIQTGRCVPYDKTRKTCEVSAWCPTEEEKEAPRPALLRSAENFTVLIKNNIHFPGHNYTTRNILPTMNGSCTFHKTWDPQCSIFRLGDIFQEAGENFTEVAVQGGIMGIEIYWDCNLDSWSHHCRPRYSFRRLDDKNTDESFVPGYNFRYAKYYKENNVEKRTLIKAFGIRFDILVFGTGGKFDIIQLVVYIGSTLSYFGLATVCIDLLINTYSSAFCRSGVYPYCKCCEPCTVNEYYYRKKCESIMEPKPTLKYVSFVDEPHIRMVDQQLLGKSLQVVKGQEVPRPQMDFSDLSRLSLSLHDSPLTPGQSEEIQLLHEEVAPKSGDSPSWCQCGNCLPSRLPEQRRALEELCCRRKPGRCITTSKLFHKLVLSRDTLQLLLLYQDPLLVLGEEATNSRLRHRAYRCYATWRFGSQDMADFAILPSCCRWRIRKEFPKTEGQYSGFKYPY

[2] = biological target: T1, P2X purinoceptor 7 (Mus musculus); test: Antagonist activity at P2X7R in Swiss Webster mouse peritoneal macrophages assessed as inhibition of ATP-induced propidium iodide uptake preincubated for 10 mins followed by ATP induction for 25 mins and subsequent propidium iodide addition for last 5 mins by fluorescence microscopic analysis
[3] = tested on: Peritoneal macrophage; test: Cytotoxicity against Swiss Webster mouse peritoneal macrophages assessed as plasma membrane disruption at 100 uM measured after 24 hrs by dextran rhodamine dye based fluorescence assay; type: cell-based
[4] = Apparent permeability across apical to basolateral side in human Caco2 cells at 100 uM measured after 60 mins by lucifer yellow staining based fluorescence assay; type: ADME, cell-based; settings: Caco-2
[5] = Intrinsic clearance in mouse liver microsomes assessed per mg protein at 1 uM measured in presence of NADPH; type: ADME, Microsome; settings: read-out: CLH
[6] = Octanol-PBS distribution co-efficient, log D of the compound at 25 mM at pH 7.4 after 2 hrs by shake flask method; type: physicochemical
[7] = biological target: T2, P2X purinoceptor 7 (Homo sapiens, UniProt Q99572); test: Antagonist activity at human P2X7R expressed in HEK293 cells assessed as inhibition of ATP-induced […] uptake preincubated for 5 mins followed by ATP induction and measured after 25 mins by fluorescence assay; type: cell-based
T2 sequence (Q99572 whole entry): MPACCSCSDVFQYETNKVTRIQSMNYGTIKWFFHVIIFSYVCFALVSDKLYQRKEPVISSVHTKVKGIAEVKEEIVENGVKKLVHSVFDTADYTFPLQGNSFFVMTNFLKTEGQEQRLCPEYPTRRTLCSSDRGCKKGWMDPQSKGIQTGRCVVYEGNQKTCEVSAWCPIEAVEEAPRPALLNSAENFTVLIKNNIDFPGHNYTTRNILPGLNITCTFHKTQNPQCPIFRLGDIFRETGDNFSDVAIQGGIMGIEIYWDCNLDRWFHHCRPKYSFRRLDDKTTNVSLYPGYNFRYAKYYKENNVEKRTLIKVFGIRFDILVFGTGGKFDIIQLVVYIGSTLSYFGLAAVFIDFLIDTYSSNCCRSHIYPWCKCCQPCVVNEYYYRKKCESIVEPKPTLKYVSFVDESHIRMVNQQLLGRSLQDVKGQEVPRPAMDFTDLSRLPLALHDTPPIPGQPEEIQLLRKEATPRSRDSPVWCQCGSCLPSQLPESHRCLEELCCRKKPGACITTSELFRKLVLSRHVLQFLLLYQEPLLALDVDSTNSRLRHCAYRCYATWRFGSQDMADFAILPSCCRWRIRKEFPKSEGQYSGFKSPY

[8] = Intrinsic clearance in human liver microsomes assessed per mg protein at 1 uM measured in presence of NADPH; type: ADME, Microsome; settings: read-out: CLH

inhibition [1] | inhibition [2] | Papp A→B at 1 h, 100 µM [4] [×10⁻⁶ cm/s] | microsomal CLint at 1 µM [5] [µL/min/mg] | logD at 2 h, 25000 µM [6] | IC50 [7] [nM] | microsomal CLint at 1 µM [8] [µL/min/mg] | SMILES | Activity [3]
inactive | inactive |  |  |  |  |  | O=C1C=C(n2cc(-c3ccccc3)nn2)C(=O)c2c(O)cccc21 | Toxic
inactive | Active | 71.8 | 40.6 | -1.24 | 230 | 46.1 | CCCCc1cn(C2=CC(=O)c3cccc(O)c3C2=O)nn1 | Non-Toxic
inactive | inactive |  |  |  |  |  | CC(C)CC(C)(O)c1cn(C2=CC(=O)c3cccc(O)c3C2=O)nn1 (stereo unspecified) | Non-Toxic
inactive | inactive |  |  |  |  |  | CCC(C)(O)c1cn(C2=CC(=O)c3cccc(O)c3C2=O)nn1 (stereo unspecified) | Non-Toxic
inactive | Active |  |  |  | 1370 |  | CCOc1ccc(Nc2ccc(/C(=C3C=C/C(=[N+](/CC)Cc4cccc(S(=O)(=O)[O-])c4)C=C/3C)c3ccc(N(CC)Cc4cccc(S(=O)(=O)[O-])c4)cc3C)cc2)cc1.[Na+] [BRILLIANT BLUE G] | Non-Toxic
inactive | Active | 41.6 | 3.1 | -0.42 | 103 | 1.2 | O=C1C=C(n2cc(CCCCl)nn2)C(=O)c2c(O)cccc21 | Non-Toxic
inactive | inactive |  |  |  |  |  | CCCc1cn(C2=CC(=O)c3cccc(O)c3C2=O)nn1 | Toxic
inactive | Active |  |  |  | 750 |  | COc1ccc(CC(=O)NC(N/C(=N/C#N)Nc2cccc3ncccc23)C(C)(C)C)cc1OC (stereo unspecified) | Non-Toxic
